Six molecules from ChEMBL document CHEMBL1158242, “New bioactive cerebrosides from Arisaema amurense” (1996) can be followed below.

Experiment [1] deals with Hepatocyte. The experiment can be described thus: Antihepatotoxic activity against CCl4-induced toxicity in rat hepatocytes assessed as effect on GPT activity at 5 uM by Reitman-Fankel method relative to control. The experiment is classed as functional.
Experiment [2] has as its system Hepatocyte. The experiment can be described thus: Antihepatotoxic activity against CCl4-induced toxicity in rat hepatocytes assessed as effect on SDH activity at 5 uM by Geralch method relative to control. The experiment is classed as functional.

SMILES strings stand for the structures.

Regarding `CCCCCCCCC/C=C/CC/C=C/[C@@H](O)[C@H](CO[C@@H]1O[C@H](CO)[C@@H](O)[C@H](O)[C@H]1O)NC(=O)C(O)CCCCCCCCCCCCCCCC` (some centres not stated), the Activity in the experiment on Hepatocyte [1] was determined as 51.6%; with Hepatocyte [2], 46.1%.
As to `CCCCCCCCC/C=C\CC/C=C/[C@@H](O)[C@H](CO[C@@H]1O[C@H](CO)[C@@H](O)[C@H](O)[C@H]1O)NC(=O)[C@H](O)CCCCCCCCCCCCCCCCCC`, the Activity with Hepatocyte [1] is given as 53.8%; in the experiment on Hepatocyte [2], 51.2%.
With `CCCCCCCCC/C=C\CC/C=C/[C@@H](O)[C@H](CO[C@@H]1O[C@H](CO)[C@@H](O)[C@H](O)[C@H]1O)NC(=O)C(O)CCCCCCCCCCCCCCCC` (some centres not stated), the results for the Activity in the experiment on Hepatocyte [1] and with Hepatocyte [2] were 35.1% and 36.9%, respectively.
On to `COc1cc(C2Oc3cc([C@H]4Oc5cc(O)cc(O)c5C(=O)[C@@H]4O)ccc3OC2CO)ccc1O` (some centres not stated) [SILIBININ], for which the Activity is reported as 48.7% in the experiment with Hepatocyte [1] and 42.3% in the experiment with Hepatocyte [2].
For the molecule `CCCCCCCCC/C=C\CC/C=C/[C@@H](O)[C@H](CO[C@@H]1O[C@H](CO)[C@@H](O)[C@H](O)[C@H]1O)NC(=O)C(O)CCCCCCCCCCCCCC` (some centres not stated), the Activity with Hepatocyte [1] was 54.4%; in the experiment with Hepatocyte [2], 71.2%.
The matching figures for `CCCCCCCCC/C=C/CC/C=C/[C@@H](O)[C@H](CO[C@@H]1O[C@H](CO)[C@@H](O)[C@H](O)[C@H]1O)NC(=O)C(O)CCCCCCCCCCCCCCCCCC` (some centres not stated): 22.5% and 7.2%.
